This note sets out measurements from US7304171B2, “Compounds and methods for cytoprotection” (Migenix Corp., priority 2004, dated 2007).

The test system of the assay is rd1 mutant mice retinas (retinal photoreceptors). Kind of assay: Murine rd1 retinal explant model for retinitis pigmentosa: photoreceptor cytoprotection in vitro. It is filed as cell-based, mouse. To be noted: 1 μM. The text has this:
Retinas were dissected at postnatal day 7 from rd1 mutant mice (Bowes et al., 1990 Nature 347:677; Frasson et al., 1999 Nat. Med. 5:1183), which carry a spontaneous cGMP phosphodiesterase mutation in retinal rod photoreceptors, leading to rapid and premature rod cell apoptosis in this animal model for the ophthalmic degenerative disease retinitis pigmentosa (RP); control retinas were from the background strain (C3H). Retinas were mounted flat on nitrocellulose membranes attached to culture dish inserts and maintained in serum-free R16 culture medium for 21 days, reflecting a stage corresponding to postnatal day 28 (Caffe et al., 2001 J. Chem. Neuroanat. 22:263). […] Slides containing the sections were coded and scored using light microscopy, by counting the rows of photoreceptors in the outer nuclear layer of the retina for five fields from each section. […] Typically, six sections from each preparation were scored, representing different cutting depths, and the collected averages from the six slides were averaged to yield an average value of remaining rows of retinal photoceptors per retina, which value was used for statistical analysis. Data were analyzed by Student's paired t-test; ratios were also calculated of treated:untreated retinas from each intra-animal pair and analyzed by Student's one-group t-test, with the population mean set to 1.0.

With `CO/N=C1\CCC2C3CCc4cc(O)c(C56CC7CC(CC(C7)C5)C6)cc4C3CC[C@]12C` (some centres unmarked) [compound 5], where the note is “rd1 retinal explant, 21 days of culture, n = 4, paired t-test p = 0.038 vs contralateral DMSO control (1.87 ± 0.11)”, the “No. Rows Photoreceptors” value stood at 2.11 ± 0.13. Besides, under “ratio of photoreceptor rows, treated:untreated retina of each intra-animal pair, 21 days, 1-group t-test p = 0.144”, the “Treated:Untreated” value is on record as 1.10 ± 0.10.
